In patent publication US20050130287A1, “Purifying process of soluble proteins of the l.obliqua bristles through prothrombin activation: process for a partial determination of the amino acids sequence of the prothrombin activator; process for determining the prothrombin activation of fraction II, n-terminal and internal fragments sequences” (priority 2002, published 2005):

Target: T1, Lopap (Lonomia obliqua, UniProt Q5ECE3)
T1 construct: from tissue; host or cells: Lonomia obliqua caterpillar bristles
T1 sequence (Q5ECE3 17-201): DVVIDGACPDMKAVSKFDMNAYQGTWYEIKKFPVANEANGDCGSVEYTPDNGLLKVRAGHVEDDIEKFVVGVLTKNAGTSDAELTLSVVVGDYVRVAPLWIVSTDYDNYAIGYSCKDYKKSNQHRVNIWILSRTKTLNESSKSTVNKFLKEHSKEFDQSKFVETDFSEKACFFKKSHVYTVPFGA
Assay: Lopap inhibition by PMSF or E-64 (S-2238)
Assay type: biochemical

CC(C)C[C@H](NC(=O)[C@H]1O[C@@H]1C(=O)O)C(=O)NCCCCN=C(N)N (relative stereo) [E-64, trans-epoxysuccinil-L-leucilamide-(4-guanidine-butane)]
effect on Lopap activity (3,2 mM E-64, Lopap 75 nM): did not affected it

O=S(=O)(F)Cc1ccccc1 [PMSF, phenylmethylsulphonil fluoride]
effect on Lopap activity (10 mM PMSF, Lopap 75 nM): completely annulled
